Laboratory results from patent US20220135622A1, “ANTIBACTERIAL PEPTIDES AND METHODS OF USE” (priority 2019, published 2022).
Converted amounts (≈) assume the structure as drawn. Like-named read-outs stand apart in the source and are kept apart here. Square brackets hold non-standard residues; d marks the D form. Peptide text beside a SMILES is read from it. Ahp(2) = CCCCC[C@H](N)C(=O)O; Dap = NC[C@H](N)C(=O)O

Columns and labels:
[1] = tested on: E. coli BW25113; type: cell-based, Escherichia coli
Method: (§1) Bacterial growth conditions. LB or Mueller Hinton II cation-adjusted broth (MHB II, BBL 212322) was prepared according to manufacturer's instructions and supplemented with arabinose at 0.02% for overnight growth or at indicated concentrations in the description of the figures. Bacterial cultures were grown at 37° C. When appropriate, media was supplemented with kanamycin (50 μg/mL), carbenicillin (50 μg/mL), chloramphenicol (12.5 or 25 μg/mL), hygromycin (200 μg/mL), and/or gentamicin (10 μg/mL).
(§2) Peptide sensitivity and MIC assays. Lyophilized peptides (Smartox Biotechnology, CPC Scientific. ABclonal) were solubilized to 10 mM in Tris buffer, pH 8, prior to making a 2-fold dilution series in MHBII cation adjusted broth with highest final assay concentration of 400-800 μM. Bacteria were grown to log phase and added to final OD600˜0.001. The final EDTA concentration was 0.5 mM for E. coli strains and 0.125 mM for USA300. The final volume of 10 μL/well in a 384 well black, clear bottom plate (Corning) was spun <1 min at <250×g and then incubated at 37° C. After 4 h, an equal volume (10 μL) of BacTiter-Glo™ (Promega) was added to each well and luminescence was read after 5 min on an EnVision plate reader (PerkinElmer). To measure the minimal inhibitory concentrations (MICs), bacteria from fresh overnight plates or log phase cultures were diluted with or without EDTA and peptides as described above to final OD600˜0.0002. Plates were incubated at 37° C. for 20 h before measuring OD600 with an EnVision plate reader.

[2] = tested on: K. pneumoniae; type: cell-based, Klebsiella pneumoniae; conditions: Table 8
Method: as §1, §2

[3] = tested on: P. aeruginosa; type: cell-based, Pseudomonas aeruginosa; conditions: Table 8
Method: as §1, §2

[4] = tested on: A. baumannii; type: cell-based, Acinetobacter baumannii; conditions: Table 8
Method: as §1, §2

[5] = tested on: S. aureus USA300; assay: MIC assay, S. aureus USA300; type: cell-based, Staphylococcus aureus; conditions: Table 7
Method: as §1, §2

[6] = tested on: E. coli imp4213; assay: MIC assay, E. coli imp4213; type: cell-based, Escherichia coli; conditions: Table 7
Method: as §1, §2

| Compound | MIC S. aureus USA300 [5] [µM] | MIC E. coli imp4213 [6] [µM] | further results |
| --- | --- | --- | --- |
| CSCC[C@H](NC(=O)[C@@H]1CCCN1C(=O)[C@H](Cc1ccc(O)cc1)NC(C)=O)C(=O)N[C@@H](CN)C(=O)N[C@@H](Cc1ccccc1)C(=O)N[C@@H](CCCNC(=N)N)C(=O)N[C@@H](CCCNC(=N)N)C(=O)N[C@@H](Cc1ccccc1)C(=O)N[C@@H](CC(C)C)C(=O)N[C@@H](CCC(=O)O)C(=O)N[C@@H](CCCCN)C(=O)N[C@@H](Cc1c[nH]c2ccccc12)C(=O)NCC(=O)N[C@@H](CC(C)C)C(=O)N[C@@H](CC(C)C)C(=O)N[C@@H](CCCNC(=N)N)C(N)=O [compound 69] (Ac-YPM[Dap]FRRFLEKWGLLR-NH2) |  |  | MIC E. coli BW25113 ([1]; Table 8): 50 µM (≈ 107 µg/mL); MIC K. pneumoniae [2]: 100 µM (≈ 214 µg/mL); MIC R. aeruginosa [3]: 200 µM (≈ 428 µg/mL); MIC A. baumannii [4]: 12.5 µM (≈ 26.7 µg/mL) |
| CCCCC[C@H](NC(=O)[C@@H](NC(=O)[C@H](CCSC)NC(=O)[C@@H]1CCCN1C(=O)[C@H](Cc1ccc(O)cc1)NC(C)=O)[C@@H](C)O)C(=O)N[C@@H](CCCNC(=N)N)C(=O)N[C@@H](CCCNC(=N)N)C(=O)N[C@@H](Cc1ccccc1)C(=O)N[C@@H](CC(C)C)C(=O)N[C@@H](CCC(=O)O)C(=O)N[C@@H](CCCCN)C(=O)N[C@@H](Cc1c[nH]c2ccccc12)C(=O)NCC(=O)N[C@@H](CC(C)C)C(=O)N[C@@H](CC(C)C)C(=O)N[C@@H](CCCNC(=N)N)C(N)=O [compound 71] (Ac-YPMT[Ahp(2)]RRFLEKWGLLR-NH2) |  |  | MIC E. coli BW25113 ([1]; Table 8): 100 µM (≈ 213 µg/mL); MIC K. pneumoniae [2]: 50 µM (≈ 107 µg/mL); MIC R. aeruginosa [3]: 50 µM (≈ 107 µg/mL); MIC A. baumannii [4]: <6.25 µM |
| CSCC[C@H](NC(=O)[C@H](CN)NC(=O)[C@H](CCSC)NC(=O)[C@@H]1CCCN1C(=O)[C@H](Cc1ccc(O)cc1)NC(C)=O)C(=O)N[C@@H](CCCNC(=N)N)C(=O)N[C@@H](CCCNC(=N)N)C(=O)N[C@@H](Cc1ccccc1)C(=O)N[C@@H](CC(C)C)C(=O)N[C@@H](CCC(=O)O)C(=O)N[C@@H](CCCCN)C(=O)N[C@@H](Cc1c[nH]c2ccccc12)C(=O)NCC(=O)N[C@@H](CC(C)C)C(=O)N[C@@H](CC(C)C)C(=O)N[C@@H](CCCNC(=N)N)C(N)=O [compound 78] (Ac-YPM[Dap]MRRFLEKWGLLR-NH2) |  |  | MIC E. coli BW25113 ([1]; Table 8): 12.5 µM (≈ 26.5 µg/mL); MIC K. pneumoniae [2]: 25.0 µM (≈ 53.1 µg/mL); MIC R. aeruginosa [3]: 100.0 µM (≈ 212 µg/mL); MIC A. baumannii [4]: 25.0 µM (≈ 53.1 µg/mL) |
| Ac-APMTARRFLEKHGL-NH2 [compound 16] | >800 | 100 |  |
| Ac-FPMTARRFLEKHGL-NH2 [compound 17] | >800 | 200 |  |
| Ac-KPMTARRFLEKWGLLR-NH2 [compound 61] |  | 12.5 | MIC R. aeruginosa [3]: 400 µM; MIC A. baumannii [4]: 40 µM |
| Ac-RPMTARRFLEKHGL-NH2 [compound 19] | >800 | 25 |  |
| Ac-RPMTWRRWLEKYGL-NH2 [compound 205] |  |  | MIC E. coli BW25113 ([1]; BW25113): 200.0 µM |
| Ac-WPMTARRFLEKHGL-NH2 [compound 18] | >800 | 200 |  |
| Ac-YAMTARRFLEKHGL-NH2 [compound 20] | >800 | 400 |  |
| Ac-YPATARRFLEKHGL-NH2 [compound 21] | >800 | 800 |  |
| Ac-YPFTARRFLEKHGL-NH2 [compound 23] | >800 | 400 |  |
| Ac-YPFTFRRFLEKWGLLR-NH2 [compound 79] |  |  | MIC E. coli BW25113 ([1]; Table 8): 200.0 µM |
| Ac-YPLTARRFLEKHGL-NH2 [compound 22] | >800 | 400 |  |
| Ac-YPMAARRFLEKHGL-NH2 [compound 25] | >800 | 800 |  |
| Ac-YPMKFRRFLEKWGLLR-NH2 [compound 107] |  |  | MIC E. coli BW25113 ([1]; Table 8): 12.5 µM |
| Ac-YPMRFRRFLEKWGLLR-NH2 [compound 108] |  |  | MIC E. coli BW25113 ([1]; Table 8): <12.5 µM |
| Ac-YPMSARRFLAKWGLLR-NH2 [compound 15] | 800 | <12.5 |  |
| Ac-YPMSARRFLEKHGL-NH2 [compound 26] | >800 | 800 |  |
| Ac-YPMTAKRFLEKHGL-NH2 [compound 30] | >800 | 800 |  |
| Ac-YPMTARAFLEKHGL-NH2 [compound 31] | >800 | 800 |  |

| Compound | MIC S. aureus USA300 [5] [µM] | MIC E. coli imp4213 [6] [µM] | further results |
| --- | --- | --- | --- |
| Ac-YPMTARHFLEKHGL-NH2 [compound 33] | >800 | 800 |  |
| Ac-YPMTARKFLEKHGL-NH2 [compound 32] | >800 | 100 |  |
| Ac-YPMTARRFLAKHGL-NH2 [compound 36] | >800 | 100 |  |
| Ac-YPMTARRFLEAHGL-NH2 [compound 39] | >800 | 200 |  |
| Ac-YPMTARRFLEHHGL-NH2 [compound 40] | >800 | 400 |  |
| Ac-YPMTARRFLEKAGL-NH2 [compound 42] | >800 | 800 |  |
| Ac-YPMTARRFLEKHGGL-NH2 [compound 101] |  |  | MIC E. coli BW25113 ([1]; Table 8): 50.0 µM |
| Ac-YPMTARRFLEKHGW-NH2 [compound 47] | >800 | 200 |  |
| Ac-YPMTARRFLEKKGL-NH2 [compound 46] | >800 | 100 |  |
| Ac-YPMTARRFLEKRGL-NH2 [compound 45] | >800 | 100 |  |
| Ac-YPMTARRFLEKWGLLR-NH2 [compound 14] | 800 | 25 |  |
| Ac-YPMTARRFLEKYGL-NH2 [compound 43] | >800 | 100 |  |
| Ac-YPMTARRFLERHGL-NH2 [compound 41] | >800 | 100 |  |
| Ac-YPMTARRFLRKHGL-NH2 [compound 38] | >800 | 100 |  |
| Ac-YPMTARRFLSKHGL-NH2 [compound 37] | >800 | 400 |  |
| Ac-YPMTARRFWEKHGL-NH2 [compound 35] | >800 | 400 |  |
| Ac-YPMTARRWLEKHGL-NH2 [compound 34] | >800 | 25 |  |
| Ac-YPMTRRRFLEKHGL-NH2 [compound 29] | >800 | 800 |  |
| Ac-YPMTWRRFLEKHGL-NH2 [compound 28] | >800 | 50 |  |
| Ac-YPMTYRRFLEKHGL-NH2 [compound 27] | >800 | 400 |  |
| Ac-YPWTARRFLEKHGL-NH2 [compound 24] | >800 | 400 |  |
